The record followed here is patent US7842681B2, “Treatment of myeoproliferative diseases” (Abbott Laboratories, priority 2006, dated 2010).

One assay addresses T1, Bcl-XL (Homo sapiens, UniProt Q07817).
T1 construct: made in house
The assay is described as follows: Binding to Bcl-XL protein. The protocol:
Binding affinity of compounds to Bcl-XL protein is indicia of their inhibition of the activity of this protein. To determine the binding affinity of compounds to Bcl-XL protein, representative examples were diluted in DMSO to concentrations between 100 μM and 1 μM and added to each well of a 96-well microtiter plate. A mixture comprising 125 μL per well of assay buffer (20 mM phosphate buffer (pH 7.4), 1 mM EDTA, 50 mM NaCl, 0.05% PF-68), 6 nM of Bcl-XL protein (prepared as described in Science 1997, 275, 983-986), 1 nM fluorescein-labeled BAD peptide (prepared in-house) and the DMSO solution of the compound was shaken for 2 minutes and placed in a LJL Analyst (LJL Bio Systems, CA). A negative control (DMSO, 15 nM BAD peptide, assay buffer) and a positive control (DMSO, 1 nM BAD peptide, 6 nM Bcl-XL, assay buffer) were used to determine the range of the assay. Polarization was measured at room temperature using a continuous Fluorescein lamp (excitation 485 nm, emission 530 nm). Percentage of inhibition was determined by (1-((mP value of well-negative control)/range))×100%.

The next assay deals with T2, Bcl-w (Homo sapiens, UniProt Q92843).
T2 sequence (Q92843 1-193): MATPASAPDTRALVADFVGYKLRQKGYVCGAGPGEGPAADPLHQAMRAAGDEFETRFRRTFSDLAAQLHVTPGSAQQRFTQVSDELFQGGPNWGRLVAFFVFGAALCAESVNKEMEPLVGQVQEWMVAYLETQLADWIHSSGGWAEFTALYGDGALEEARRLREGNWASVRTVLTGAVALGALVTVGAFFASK
The assay is described as follows: Binding to Bcl-w.

The next assay concerns Bcl-2. Put plainly: Binding to Bcl-2 protein. As to the method:
Binding affinity of compounds to Bcl-2 protein is indicia of their inhibition of the activity of this protein. To determine the binding affinity of compounds to Bcl-2, representative examples were diluted in DMSO to concentrations between […] and added to each well of a 96-well microtiter plate. A mixture comprising 125 µL per well of assay buffer (20 mM phosphate buffer (pH 7.4), 1 mM EDTA, 50 mM NaCl, 0.05% PF-68), 10 nM of Bcl-2 protein (prepared according to the procedure described in PNAS 2001, 98, 3012-3017), 1 nM fluorescein-labeled BAX peptide (prepared in-house) and the DMSO solution of the representative example was shaken for 2 minutes and placed in a LJL Analyst (LJL Bio Systems, CA. Polarization was measured at room temperature using a continuous Fluorescein lamp (excitation 485 nm, emission 530 nm). Percentage of inhibition was determined by (1-((mP value of well-negative control)/range))×100%.

Assay [1] has as its system circulating platelets. Put plainly: Circulating platelet count in dogs after a single oral dose. Conditions: male beagle dogs, one 5 mg/kg oral dose (FIG. 1, FIG. 2). The class given is in vivo. As to the method:
(§1) The effect of Bcl-2 protein inhibitors on circulating platelets can be determined by administration of test compounds, preferably orally or intravenously, to an animal and analyzing a blood sample and determining the number of platelets by techniques well-known in the art. Preferably, blood samples are obtained from about 2 hours to about 48 hours after compound administration.
Male beagle dogs (n=3/group; 8-12 kg) were treated with a single dose of 5 mg/kg N-(4-(4-((2-(4-chlorophenyl)-4,4-dimethylcyclohex-1-en-1-yl)methyl)piperazin-1-yl)benzoyl)-4-(((1R)-3-(morpholin-4-yl)-1-((phenylsulfanyl)methyl)propyl)amino)-3-((trifluoromethyl)sulfonyl)benzenesulfonamide in 10:30:60 ethanol/phosal 50 PG/PEG 400 (by weight) by oral gavage. Blood samples were collected at baseline and at the indicated time points from the jugular vein, treated with EDTA and the whole blood analyzed for platelet counts on a Cell-Dyn 3700 (Abbott Laboratories).
Male beagle dogs (n=3/group; 8-12 kg) were treated with a single dose of 5 mg/kg 3-((chloro(difluoro)methyl)sulfonyl)-N-(4-(4-((2-(4-chlorophenyl)-4,4-dimethylcyclohex-1-en-1-yl)methyl)piperazin-1-yl)benzoyl)-4-(((1R)-3-(morpholin-4-yl)-1-((phenylsulfanyl)methyl)propyl)amino)benzenesulfonamide in 10:90 DMSO/PEG 400 (by volume) by oral gavage. […]

The subject of the next assay is dog platelets. Put plainly: Viability of dog platelets. The class given is cell-based.
For assay [2], the system named is circulating platelets. Put plainly: Circulating platelet count in dogs on multiple oral daily dosing. Type of assay: in vivo. Conditions: male beagle dogs, once daily oral gavage, 2 mg/kg days 2-7, 6 mg/kg days 8-15 (FIG. 5). The protocol: as §1
Male beagle dogs (n=3/group; 8-12 kg) were treated once daily with N-(4-(4-((2-(4-chlorophenyl)-5,5-dimethyl-1-cyclohex-1-en-1-yl)methyl)piperazin-1-yl)benzoyl)-4-(((1R)-3-(morpholin-4-yl)-1-((phenylsulfanyl)methyl)propyl)amino)-3-((trifluoromethyl)sulfonyl)benzenesulfonamide in 10:90 DMSO/PEG 400 (by volume) by oral gavage at a dose of 2 mg/kg on days 2-7 and at a dose of 6 mg/kg on days 8-15 of the study. Blood samples were collected at baseline and 6 hours post dosing on days 2-5, 8-12 and day 15 from the jugular vein, treated with EDTA and the whole blood analyzed for platelet counts on a Cell-Dyn 3700 (Abbott Laboratories). Percent starting platelet counts (PC) were calculated using the following equation. [1−(PCt=0−PCt=6)/PCt=0]×100%.

A further assay concerns human platelets. The assay is described as follows: Viability of human platelets. Type of assay: cell-based.
In the next assay the test system is platelets. The assay is described as follows: Activation of apoptotic processes in platelets. Type of assay: cell-based, dog and human.
The subject of a further assay is isolated platelets. Put plainly: Aggregation of isolated platelets. The class given is cell-based.

T1 sequence (Q07817 whole entry): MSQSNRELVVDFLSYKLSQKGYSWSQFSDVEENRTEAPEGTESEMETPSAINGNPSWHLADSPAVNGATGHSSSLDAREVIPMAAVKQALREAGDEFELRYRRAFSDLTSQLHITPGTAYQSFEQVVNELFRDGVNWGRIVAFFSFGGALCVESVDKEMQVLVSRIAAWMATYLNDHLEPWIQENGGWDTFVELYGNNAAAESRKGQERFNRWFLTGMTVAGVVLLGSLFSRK

For the compound `CN(C)CC[C@H](CSc1ccccc1)Nc1ccc(S(=O)(=O)NC(=O)c2ccc(N3CCN(Cc4ccccc4-c4ccc(Cl)cc4)CC3)cc2)cc1[N+](=O)[O-]` [EXAMPLE 7, N-(4-(4-((4′-chloro(1,1′-biphenyl)-2-yl)methyl)piperazin-1-yl)benzoyl)-4-(((1R)-3-(dimethylamino)-1-((phenylsulfanyl)methyl)propyl)amino)-3-nitrobenzenesulfonamide], on Bcl-XL, the “binding to Bcl-XL” value is given as “capable of binding”. For the same compound, the “binding to Bcl-w” value on Bcl-w is recorded as “capable of binding”. Further, in the assay with Bcl-2, the “binding to Bcl-2” value is “capable of binding”.

On to `CC1(C)CCC(CN2CCN(c3ccc(C(=O)NS(=O)(=O)c4ccc(N[C@H](CCN5CCOCC5)CSc5ccccc5)c(S(=O)(=O)C(F)(F)F)c4)cc3)CC2)=C(c2ccc(Cl)cc2)C1` [EXAMPLE 6, N-(4-(4-((2-(4-chlorophenyl)-4,4-dimethylcyclohex-1-en-1-yl)methyl)piperazin-1-yl)benzoyl)-4-(((1R)-3-(morpholin-4-yl)-1-((phenylsulfanyl)methyl)propyl)amino)-3-((trifluoromethyl)sulfonyl)benzenesulfonamide], for which the circulating platelet count entry in the assay with circulating platelets [1] is reported as “rapid reduction in circulating platelet count”.

Turning to `CC1(C)CCC(c2ccc(Cl)cc2)=C(CN2CCN(c3ccc(C(=O)NS(=O)(=O)c4ccc(N[C@H](CCN5CCOCC5)CSc5ccccc5)c(S(=O)(=O)C(F)(F)F)c4)cc3)CC2)C1` [EXAMPLE 2, N-(4-(4-((2-(4-chlorophenyl)-5,5-dimethyl-1-cyclohex-1-en-1-yl)methyl)piperazin-1-yl)benzoyl)-4-(((1R)-3-(morpholin-4-yl)-1-((phenylsulfanyl)methyl)propyl)amino)-3-((trifluoromethyl)sulfonyl)benzenesulfonamide], the viability of platelets entry in the assay on dog platelets was “reduced”. Besides, the “circulating platelet count, multiple oral dosing” value with circulating platelets [2] is listed as “proportionate effect”. Further, the viability of platelets entry with human platelets is on record as “reduced”. Besides, in the assay with platelets, the “PS (phosphotidyl serine) externalization” value was “activated”, the “caspase 3 activation” value is reported as “activated” and the cytochrome c release entry is given as “activated”. Also, the “binding to Bcl-XL” value on Bcl-XL is “capable of binding”. Also, the “binding to Bcl-w” value on Bcl-w is reported as “capable of binding”. In the assay on Bcl-2, the “binding to Bcl-2” value is “capable of binding”. For the same compound, in the assay on isolated platelets, the “aggregation of isolated platelets” value is reported as “did not induce”.
